Experimental findings from paper PMC9721090 (FASEB BioAdvances, 2022) are described below.

Structures can show the parent of a compound that is named as a salt.

The target of one test is β2AR (Homo sapiens, UniProt P07550). The format is binding.
The next test concerns the target β2AR-Gαs (Homo sapiens, UniProt P07550). The experiment in a line: Saturation binding of [3H] DHA, membranes of t β2AR-Gαs HEK 293 cells.
For test [1], the target named is T1, β2AR-βarr2 (Homo sapiens, UniProt P07550+P32121). The experiment in a line: Saturation binding of [3H] DHA, membranes of t β2AR-βarr2 HEK 293 cells.
Test [2] deals with T1, β2AR-βarr2. Kind of test: ERK1/2 phosphorylation. The format is cell-based. The note with it: t β2AR-βarr2 HEK 293; PTX 100ng/ml overnight.

β2AR, sequence (P07550 whole entry): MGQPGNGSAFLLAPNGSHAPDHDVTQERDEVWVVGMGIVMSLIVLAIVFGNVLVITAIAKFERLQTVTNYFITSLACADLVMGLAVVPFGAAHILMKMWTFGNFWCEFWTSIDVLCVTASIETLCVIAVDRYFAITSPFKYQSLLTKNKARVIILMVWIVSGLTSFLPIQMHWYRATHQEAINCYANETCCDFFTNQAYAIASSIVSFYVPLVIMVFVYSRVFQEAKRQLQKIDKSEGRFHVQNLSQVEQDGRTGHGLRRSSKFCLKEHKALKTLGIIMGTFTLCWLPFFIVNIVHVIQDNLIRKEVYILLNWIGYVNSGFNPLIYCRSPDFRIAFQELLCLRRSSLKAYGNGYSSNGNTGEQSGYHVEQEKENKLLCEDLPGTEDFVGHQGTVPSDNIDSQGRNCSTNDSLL

For `CCCc1ccccc1OC[C@@H](O)CNC(C)C` [[3H] dihydroalprenolol, Dihydroalprenolol hydrochloride, levo‐[ring, propyl‐^3H(N)]‐], the dissociation constant Kd on β2AR is 0.148 ± 0.028 nM; on β2AR-Gαs it was 0.213 ± 0.049 nM; at β2AR-βarr2 [1], 0.233 ± 0.022 nM.
As to pertussis toxin, in the test with β2AR-βarr2 [2], the “effect on constitutive ERK1/2 phosphorylation” value is given as “no effect”.
